Values belong to the sequence of their own block, whether it stands above or below them.
Target: T1, MAL^TIR (Homo sapiens, UniProt P58753)
T1 construct: MAL (residues 79–221); 6xHis; made in house; host or cells: E. coli BL21 (DE3)
Test: T‐Surf phage library (P8 and P3) selection against MAL^TIR, four rounds, NGS read counts
Assay type: binding
Conditions: for P3_MAL Rank (after) / P3_MAL Rank (before): P3 library; for Population: P3_MAL pool: P3 T-Surf phage library, 4th round of selection against MAL TIR, share of NGS reads; for P8_MAL Rank (after) / P8_MAL Rank (before): P8 library
Procedure, shortened: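 Read counts come from NGS of phage pools enriched over four selection rounds on the plate‐coated TIR domain (5 µg mL^−1). Each round: 1 h phage binding at room temperature after 0.2% BSA blocking, Tween washes, acid elution, amplification in E. coli TG1 with M13KO7 helper.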

[1] = selection against MAL, rank by count after grouping
[2] = selection against MAL, rank by count before grouping
[3] = 4R selection against MAL, rank after grouping
[4] = 4R selection against MAL, rank before grouping
[5] = P3_MAL: rank by count after grouping
[6] = P3_MAL: rank by count before grouping
[7] = selection against MAL, rank after grouping
[8] = selection against MAL, rank before grouping
[9] = selection against MAL TIR, rank by count after grouping
[10] = selection against MAL TIR, rank by count before grouping

T1 sequence (P58753 79-221): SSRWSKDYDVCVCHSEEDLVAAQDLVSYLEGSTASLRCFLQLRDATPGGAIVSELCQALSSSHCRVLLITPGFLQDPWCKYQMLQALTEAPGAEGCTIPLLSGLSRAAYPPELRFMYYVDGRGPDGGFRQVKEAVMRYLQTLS

P3_MAL Rank (after) [1]: 735
P3_MAL Rank (before) [2]: 3480
Sequence: NNLFNELVSKNIRTFT

P3_MAL Rank (after) [3]: 631
P3_MAL Rank (before) [4]: 3431
Sequence: NQAFWNRLWAKLKPLT

Rank (after) [5]: 402
Rank (before) [6]: 3424
Sequence: NQCHNAITADMNQTRL

Rank (after) [5]: 146
Rank (before) [6]: 3327
Sequence: NQCRNALTAAANLKGW

Population: 0.00376%
Sequence: NQCRNALTAAANLSGW

P3_MAL Rank (after) [7]: 538
P3_MAL Rank (before) [8]: 3423
Sequence: NQCRNALTPAAKLSSL

P3_MAL Rank (after) [3]: 641
P3_MAL Rank (before) [4]: 3329
Sequence: NQCSNALTGAAILSGW

P3_MAL Rank (after) [7]: 528
P3_MAL Rank (before) [8]: 3330
Sequence: NQCTDALTAAVVLSGW

P3_MAL Rank (after) [3]: 613
P3_MAL Rank (before) [4]: 3325
Sequence: NQLRNALTASANLSGW

P3_MAL Rank (after) [9]: 267
P3_MAL Rank (before) [10]: 3324
Sequence: NQLRTALTAAANLSGW

Rank (after) [5]: 469
Rank (before) [6]: 3476
Sequence: NQRRNAVTAAAKLSGC

Rank (after) [5]: 473
Rank (before) [6]: 3418
Sequence: NQWHNALAAAANLLGL

P3_MAL Rank (after) [1]: 767
P3_MAL Rank (before) [2]: 3336
Sequence: NQWRDPLTGDMILSGW

P3_MAL Rank (after) [9]: 286
P3_MAL Rank (before) [10]: 3349
Sequence: NQWRNALPAAANLRGW

P3_MAL Rank (after) [3]: 625
P3_MAL Rank (before) [4]: 3351
Sequence: NQWRNALSSIASRP

Rank (after) [5]: 157
Rank (before) [6]: 3362
Sequence: NQWRNALTAAAHLSGL

P3_MAL Rank (after) [7]: 522
P3_MAL Rank (before) [8]: 3386
Sequence: NQWRNALTAAAKLKAPI

P3_MAL Rank (after) [7]: 564
P3_MAL Rank (before) [8]: 3384
Sequence: NQWRNALTAAAKLSGG

Population: 0.00413%
Sequence: NQWRNALTAAANLIGW

Rank (after) [5]: 145
Rank (before) [6]: 3369
Sequence: NQWRNALTAAANLRGR

P3_MAL Rank (after) [9]: 282
P3_MAL Rank (before) [10]: 3379
Sequence: NQWRNALTAAANLSDR

Population: 0.00564%
Sequence: NQWRNALTAAANLSGR

P3_MAL Rank (after) [3]: 610
P3_MAL Rank (before) [4]: 3370
Sequence: NQWRNALTAAANLSVC

Rank (after) [5]: 161
Rank (before) [6]: 3383
Sequence: NQWRNALTAAANQSGL

P3_MAL Rank (after) [9]: 221
P3_MAL Rank (before) [10]: 3364
Sequence: NQWRNALTAAASLSGR

Rank (after) [5]: 169
Rank (before) [6]: 3353
Sequence: NQWRNALTAASNLSIW

Rank (after) [5]: 119
Rank (before) [6]: 3403
Sequence: NQWRNALTAATNLSGG

P3_MAL Rank (after) [9]: 268
P3_MAL Rank (before) [10]: 3414
Sequence: NQWRNALTAEAKLSGW

Population: 0.00413%
Sequence: NQWRNALTAEANLSGW

P3_MAL Rank (after) [9]: 228
P3_MAL Rank (before) [10]: 3389
Sequence: NQWRNALTAPANLSGR

P3_MAL Rank (after) [3]: 604
P3_MAL Rank (before) [4]: 3390
Sequence: NQWRNALTATANLSGL

Population: 0.00451%
Sequence: NQWRNALTAVANLSGW

Population: 0.00639%
Rank (after) [5]: 107
Rank (before) [6]: 124
Sequence: NQWRNALTKVANLV

Rank (after) [5]: 152
Rank (before) [6]: 3399
Sequence: NQWRNAQTAAAKLSGW

P3_MAL Rank (after) [9]: 255
P3_MAL Rank (before) [10]: 3406
Sequence: NQWRNELNAAANLSGW

P3_MAL Rank (after) [7]: 508
P3_MAL Rank (before) [8]: 3405
Sequence: NQWRNELTAAANLNGW

Rank (after) [5]: 173
Rank (before) [6]: 3340
Sequence: NQWRNSLTAAANLRGW

P3_MAL Rank (after) [9]: 204
P3_MAL Rank (before) [10]: 3341
Sequence: NQWRNSLTAAANLSCW

Rank (after) [5]: 176
Rank (before) [6]: 3342
Sequence: NQWRNSLTAAANLSGR

Population: 0.00376%
Sequence: NQWRNTLTAAANLSGW

P3_MAL Rank (after) [7]: 575
P3_MAL Rank (before) [8]: 3420
Sequence: NQWSNELTAAANLRGW

Rank (after) [5]: 186
Rank (before) [6]: 3419
Sequence: NQWSNSLTAAANLSGW

Population: 0.00376%
Sequence: NRWRNALTAAANLSGW

P3_MAL Rank (after) [3]: 620
P3_MAL Rank (before) [4]: 3479
Sequence: NSFRERLRHLMAHSKM

P8_MAL Rank (after) [7]: 502
P8_MAL Rank (before) [8]: 2655
Sequence: NYASSSWALDELWNIF

P3_MAL Rank (after) [7]: 488
P3_MAL Rank (before) [8]: 2636
Sequence: PDKDKGGENAFINNIV

P3_MAL Rank (after) [7]: 556
P3_MAL Rank (before) [8]: 2639
Sequence: PEKDHGGENAIIKNIE

P3_MAL Rank (after) [9]: 200
P3_MAL Rank (before) [10]: 2645
Sequence: PEKDNGGANAFSNNIV

Rank (after) [5]: 470
Rank (before) [6]: 2642
Sequence: PEKDTVRVNVIIHNIV

P3_MAL Rank (after) [3]: 609
P3_MAL Rank (before) [4]: 2638
Sequence: PESGKLASGAGKSGQT

P8_MAL Rank (after) [7]: 574
P8_MAL Rank (before) [8]: 2320
Sequence: PFFWAQLKSLLRNPTS

Rank (after) (P8_MAL: rank by count after grouping): 480
Rank (before) (P8_MAL: rank by count before grouping): 2325
Sequence: PFFWEHLRHLLRSHTL

P8_MAL Rank (after) [7]: 510
P8_MAL Rank (before) [8]: 2323
Sequence: PFFWEQLRTVLGKPTK
